Data taken from patent US12606541B2, “PPARg modulators and methods of use” (Eisai R&D Management Co., Ltd., priority 2020, dated 2026).

What was measured:
His6-TEV-PPARγ-(234-505) = target: T1, His6-TEV-PPARγ-(234-505) (Homo sapiens, UniProt P37231); test: TR-FRET Assay to Measure Co-R Peptide Recruitment to PPARγ; type: biochemical; conditions: Co-R peptide (SMRT-ID2) recruitment; top final concentration 20 μM; read-out: TR-FRET i-Ag; AC50
T1 construct: The His6-TEV-PPARγ-(234-505) protein for assay was expressed and purified; TEV cleavage site (N); made in house
T1 sequence (P37231 234-505): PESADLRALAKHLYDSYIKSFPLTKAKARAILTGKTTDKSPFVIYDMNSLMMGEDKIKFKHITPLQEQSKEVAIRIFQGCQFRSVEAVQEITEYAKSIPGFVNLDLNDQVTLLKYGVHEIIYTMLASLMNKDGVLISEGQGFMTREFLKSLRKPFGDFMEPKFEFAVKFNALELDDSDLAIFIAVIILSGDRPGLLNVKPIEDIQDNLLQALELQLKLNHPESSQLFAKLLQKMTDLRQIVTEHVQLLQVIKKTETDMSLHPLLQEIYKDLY
In short: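 Corepressor recruitment is measured by adding terbium-labeled anti-His antibody and FITC SMRT-ID2 peptide, at 5 and 200 nM final, after a 20-minute room-temperature protein–compound incubation. After one further hour, signal is converted to percent response between DMSO and 500 nM T0070907 wells.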

UM-UC-9 engineered cells = test: Cell proliferation / short-term viability assay, CellTiter-Glo 144 h; type: cell-based, human; conditions: Homo sapiens, UM-UC-9, 144 h, read-out: CTGlo 144 h UMUC9.5, G150
In short: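 Viability read by CellTiter-Glo 2.0 luminescence at day 7 versus DMSO-vehicle wells and a T0 plate measured on day 0. Cells: UM-UC-9 engineered assay-ready stocks, 500 cells/well in high-glucose DMEM with 10% FBS, 37° C, 5% CO2.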

SMILES: COc1cc(-c2cc(C(=O)N3CC[C@H](C(=O)NCc4ncc(F)cc4N4CCN(C)CC4)CC34CC4)n[nH]2)c(F)cn1 [Example 404, (S)-4-(5-(5-fluoro-2-methoxypyridin-4-yl)-1H-pyrazole-3-carbonyl)-N-((5-fluoro-3-(4-methylpiperazin-1-yl)pyridin-2-yl)methyl)-4-azaspiro[2.5]octane-7-carboxamide]
- AC50 (His6-TEV-PPARγ-(234-505)): 164 nM
- IC50 (UM-UC-9 engineered cells): 887 nM

SMILES: COc1cc(-c2cc(C(=O)N3CC[C@H](C(=O)NC4CN(CC5(F)CC5)C4)CC34CC4)n[nH]2)c(F)cn1 [Example 406, (S)-4-(5-(5-fluoro-2-methoxypyridin-4-yl)-1H-pyrazole-3-carbonyl)-N-(1-((1-fluorocyclopropyl)methyl)azetidin-3-yl)-4-azaspiro[2.5]octane-7-carboxamide]
- AC50 (His6-TEV-PPARγ-(234-505)): 34.1 nM
- IC50 (UM-UC-9 engineered cells): 73.3 nM

SMILES: COc1cc(-c2cc(C(=O)N3CC[C@H](C(=O)NC4CCC5(CC4)N([S+]([O-])C(C)(C)C)CC5(F)F)CC34CC4)n[nH]2)c(F)cn1 (stereo partly drawn) [Example 409, (7S)—N-(1-(tert-butylsulfinyl)-3,3-difluoro-1-azaspiro[3.5]nonan-7-yl)-4-(5-(5-fluoro-2-methoxypyridin-4-yl)-1H-pyrazole-3-carbonyl)-4-azaspiro[2.5]octane-7-carboxamide]
- AC50 (His6-TEV-PPARγ-(234-505)): 30.9 nM
- IC50 (UM-UC-9 engineered cells): 39.1 nM

SMILES: COc1cc(-c2cc(C(=O)N3CC[C@H](C(=O)NCc4nnc(C)cc4C)CC34CC4)n[nH]2)c(F)cn1 [Example 412, (S)—N-((4,6-dimethylpyridazin-3-yl)methyl)-4-(5-(5-fluoro-2-methoxypyridin-4-yl)-1H-pyrazole-3-carbonyl)-4-azaspiro[2.5]octane-7-carboxamide]
- AC50 (His6-TEV-PPARγ-(234-505)): 79.2 nM
- IC50 (UM-UC-9 engineered cells): 198 nM

SMILES: COc1cc(-c2cc(C(=O)N3CC[C@@H](C(=O)NCc4ncc(Cl)cn4)CC34CC4)n[nH]2)c(F)cn1 [Example 413, (R)—N-((5-chloropyrimidin-2-yl)methyl)-4-(5-(5-fluoro-2-methoxypyridin-4-yl)-1H-pyrazole-3-carbonyl)-4-azaspiro[2.5]octane-7-carboxamide]
- AC50 (His6-TEV-PPARγ-(234-505)): 15.2 nM
- IC50 (UM-UC-9 engineered cells): 55 nM

SMILES: COc1cc(-c2cc(C(=O)N3CC[C@H](C(=O)NCc4cccc5ccnn45)CC34CC4)n[nH]2)c(F)cn1 [Example 416, (S)-4-(5-(5-fluoro-2-methoxypyridin-4-yl)-1H-pyrazole-3-carbonyl)-N-(pyrazolo[1,5-a]pyridin-7-ylmethyl)-4-azaspiro[2.5]octane-7-carboxamide]
- AC50 (His6-TEV-PPARγ-(234-505)): 6.1 nM
- IC50 (UM-UC-9 engineered cells): 7.4 nM

SMILES: COc1cc(-c2cc(C(=O)N3CC[C@H](C(=O)NC4CCN(C5COC5)CC4)CC34CC4)n[nH]2)c(F)cn1 [Example 417, (S)-4-(5-(5-fluoro-2-methoxypyridin-4-yl)-1H-pyrazole-3-carbonyl)-N-(1-(oxetan-3-yl)piperidin-4-yl)-4-azaspiro[2.5]octane-7-carboxamide]
- AC50 (His6-TEV-PPARγ-(234-505)): 681 nM
- IC50 (UM-UC-9 engineered cells): 1160 nM

SMILES: COc1cc(-c2cc(C(=O)N3CCC(C(=O)NC4CC5COCC(C4)N5C)CC34CC4)n[nH]2)c(F)cn1 (stereo not drawn) [Example 419-A]
- AC50 (His6-TEV-PPARγ-(234-505)): 359 nM
- IC50 (UM-UC-9 engineered cells): 854 nM

SMILES: COc1cc(-c2cc(C(=O)N3CC[C@H](C(=O)NC4CCN(S(C)(=O)=O)CC4)CC34CC4)n[nH]2)c(F)cn1 [Example 420, (S)-4-(5-(5-fluoro-2-methoxypyridin-4-yl)-1H-pyrazole-3-carbonyl)-N-(1-(methylsulfonyl)piperidin-4-yl)-4-azaspiro[2.5]octane-7-carboxamide]
- AC50 (His6-TEV-PPARγ-(234-505)): 231 nM
- IC50 (UM-UC-9 engineered cells): 1370 nM

SMILES: COc1cc(-c2cc(C(=O)N3CC[C@H](C(=O)N[C@@H]4CN(c5ccc(C)nc5)C[C@H]4F)CC34CC4)n[nH]2)c(F)cn1 [Example 426, (S)—N-((3R,4R)-4-fluoro-1-(6-methylpyridin-3-yl)pyrrolidin-3-yl)-4-(5-(5-fluoro-2-methoxypyridin-4-yl)-1H-pyrazole-3-carbonyl)-4-azaspiro[2.5]octane-7-carboxamide]
- AC50 (His6-TEV-PPARγ-(234-505)): 24 nM
- IC50 (UM-UC-9 engineered cells): 50.9 nM

SMILES: COc1cc(-c2cc(C(=O)N3CC[C@H](C(=O)N[C@H]4CN(c5ccc(C)nc5)C[C@@H]4F)CC34CC4)n[nH]2)c(F)cn1 [Example 427, (S)—N-((3S,4S)-4-fluoro-1-(6-methylpyridin-3-yl)pyrrolidin-3-yl)-4-(5-(5-fluoro-2-methoxypyridin-4-yl)-1H-pyrazole-3-carbonyl)-4-azaspiro[2.5]octane-7-carboxamide]
- AC50 (His6-TEV-PPARγ-(234-505)): 10.5 nM
- IC50 (UM-UC-9 engineered cells): 4.2 nM

SMILES: COc1cc(-c2cc(C(=O)N3CC[C@H](C(=O)N[C@H]4CN(c5ccc(C)nc5)C[C@H]4F)CC34CC4)n[nH]2)c(F)cn1 [Example 428, (S)—N-((3S,4R)-4-fluoro-1-(6-methylpyridin-3-yl)pyrrolidin-3-yl)-4-(5-(5-fluoro-2-methoxypyridin-4-yl)-1H-pyrazole-3-carbonyl)-4-azaspiro[2.5]octane-7-carboxamide]
- AC50 (His6-TEV-PPARγ-(234-505)): 54.7 nM
- IC50 (UM-UC-9 engineered cells): 141 nM

SMILES: COc1cc(-c2cc(C(=O)N3CC[C@H](C(=O)NC4C5CN(C6COC6)CC54)CC34CC4)n[nH]2)c(F)cn1 (stereo partly drawn) [Example 429, (7S)-4-(5-(5-fluoro-2-methoxypyridin-4-yl)-1H-pyrazole-3-carbonyl)-N-(3-(oxetan-3-yl)-3-azabicyclo[3.1.0]hexan-6-yl)-4-azaspiro[2.5]octane-7-carboxamide]
- AC50 (His6-TEV-PPARγ-(234-505)): 347 nM
- IC50 (UM-UC-9 engineered cells): 1040 nM

SMILES: COc1cc(-c2cc(C(=O)N3CC[C@H](C(=O)Nc4cnn5ccc(Cl)nc45)CC34CC4)n[nH]2)c(F)cn1 [Example 430, (S)—N-(5-chloropyrazolo[1,5-a]pyrimidin-3-yl)-4-(5-(5-fluoro-2-methoxypyridin-4-yl)-1H-pyrazole-3-carbonyl)-4-azaspiro[2.5]octane-7-carboxamide]
- AC50 (His6-TEV-PPARγ-(234-505)): 5 nM
- IC50 (UM-UC-9 engineered cells): 8.4 nM

SMILES: COc1cc(-c2cc(C(=O)N3CC[C@H](C(=O)NCc4nccnc4C(F)(F)F)CC34CC4)n[nH]2)c(F)cn1 [Example 432, (S)-4-(5-(5-fluoro-2-methoxypyridin-4-yl)-1H-pyrazole-3-carbonyl)-N-((3-(trifluoromethyl)pyrazin-2-yl)methyl)-4-azaspiro[2.5]octane-7-carboxamide]
- AC50 (His6-TEV-PPARγ-(234-505)): 4.1 nM
- IC50 (UM-UC-9 engineered cells): 9.1 nM

SMILES: COc1cc(-c2cc(C(=O)N3CC[C@H](C(=O)NCc4ncc(N5CC(C)NC(C)C5)cc4Cl)CC34CC4)n[nH]2)c(F)cn1 (stereo partly drawn) [Example 434, (7S)—N-((3-chloro-5-(3,5-dimethylpiperazin-1-yl)pyridin-2-yl)methyl)-4-(5-(5-fluoro-2-methoxypyridin-4-yl)-1H-pyrazole-3-carbonyl)-4-azaspiro[2.5]octane-7-carboxamide]
- AC50 (His6-TEV-PPARγ-(234-505)): 11.9 nM
- IC50 (UM-UC-9 engineered cells): 45.3 nM

SMILES: COc1cc(-c2cc(C(=O)N3[C@@H]4CC[C@H]3C[C@H](C(=O)NC3CCC(O)(C(F)(F)CO)CC3)C4)n[nH]2)c(F)cn1 (stereo partly drawn) [Example 436, (1R,3s,5S)—N-(4-(1,1-difluoro-2-hydroxyethyl)-4-hydroxycyclohexyl)-8-(5-(5-fluoro-2-methoxypyridin-4-yl)-1H-pyrazole-3-carbonyl)-8-azabicyclo[3.2.1]octane-3-carboxamide]
- AC50 (His6-TEV-PPARγ-(234-505)): 132 nM
- IC50 (UM-UC-9 engineered cells): > 10000 nM

SMILES: COc1cc(-c2cc(C(=O)N3[C@@H]4CC[C@H]3C[C@H](C(=O)N[C@@H]3CCN(CC5(C(F)(F)F)CC5)C3)C4)n[nH]2)c(F)cn1 [Example 437, (1R,3s,5S)-8-(5-(5-fluoro-2-methoxypyridin-4-yl)-1H-pyrazole-3-carbonyl)-N—((R)-1-((1-(trifluoromethyl)cyclopropyl)methyl)pyrrolidin-3-yl)-8-azabicyclo[3.2.1]octane-3-carboxamide]
- AC50 (His6-TEV-PPARγ-(234-505)): 14.8 nM
- IC50 (UM-UC-9 engineered cells): 67.6 nM
